{"source": "patent US20180289702A1", "about": "“LPA LEVEL REDUCTION FOR TREATING CENTRAL NERVOUS SYSTEM DISORDERS” (priority 2015, published 2018)", "key": {"PRG-1+/− mice": {"system": "PRG-1+/− mice", "test": "pre-pulse inhibition (PPI) of the startle response in PRG-1+/− mice", "type": "in vivo", "conditions": "i.p. 3 hours prior to PPI, level not different to wt", "method": "Animals were treated using the in-vivo potent autotaxin inhibitor PF 8380 (Gierse et al., 2010). Animals received a single i.p. injection 3 hours prior to PPI."}, "PRG-1R346T+/− animals": {"system": "PRG-1R346T+/− animals", "test": "PPI in PRG-1R346T+/− knock-in mice", "type": "in vivo", "conditions": "monoallelic PRG-1R346T+/− animals", "method": "In order to investigate whether the described human mutation indeed results in a endophenotype for psychiatric disorders, the inventors produced an knock-in mouse line where the PRG-1^R346T mutated gene was introduced in place of the PRG-1 wild-type gene. Since only monoallelic PRG-1^R346T mutation carriers were detected, PRG-1^R346T+/− animals were used for the study, which correspond to the human in-vivo situation.\nAnimals received a single i.p. injection 3 hours prior to PPI."}, "[1]": {"system": "animal model of schizophrenia induced by ketamine", "test": "ketamine-induced animal model of schizophrenia: PPI and open field hyperactivity", "type": "in vivo, mice", "from_the_text": "In order to correlate these electrophysiological effects with behavior in these mice, the inventors first analyzed PPI after ketamine application. […] In sum, ATX-inhibition has the general potential to normalize E/I balance in psychiatric disorders associated with increased glutamatergic input and opens a new therapeutic avenue towards treatment of psychiatric disorders."}, "[2]": {"system": "hippocampal slices from PRG-1 KO mice", "test": "evoked EPSCs in hippocampal slices", "type": "cell-based"}, "PRG1−/− mice": {"system": "PRG1−/− mice", "test": "simultaneous in-vivo recordings of MEC and hippocampal CA1 in freely moving mice", "method": "Electrophysiological measurements in freely moving animals were performed as described (O'Neill PK et al. 2013). Briefly, animals were kept during surgical procedures under isoflurane anesthesia and electrodes (WE3PT10.5F3, MicroProbes, Gaithersburg, Md., USA) were chronically implanted in the medial entorhinal cortex (MEC; 3.1 mm, lateral to the midline, 0.2 mm anterior to the transverse sinus at an angle of 6° in the anterior-to-posterior direction in the sagittal plane) and in the hippocampal CA1-region (1.5 mm lateral to the midline, 1.5 mm anterior-to-posterior and 1.2 mm dorsal-to-ventral at an angle of 0°). The electrodes were connected to an electrode interface board (EIB-16; Neuralynx, USA) and were secured to the skull using jewelers screws and dental cement. Neural data was acquired using a 16-channel head stage and a Digital Lynx data acquisition system (Neuralynx, USA). The animal's position was monitored using two light-emitting diodes mounted on the head stage. To extract local field potentials, the neural signals were bandpass filtered between 1 and 1000 Hz and digitized at 2 kHz. Separate recordings, each lasting 10 minutes, were made while animals moved freely in their home cage in an open field (0.5 m×0.5 m×0.5 m) and in a plus-maze with a length of 0.4 m per arm. Recordings were repeated for two days. Analysis of neural and behavioral data was performed using custom-written MATLAB scripts (MathWorks). Recording location was verified by current application at the end of the experiment after which animals were perfused, and the brains were cut on a vibratome and Nissl stained using cresyl violet.\nCoherence of neuronal activity between the MEC and in the CA1 was computed using the multitaper method (MATLAB routines provided by K. Harris, University College London, London, UK, and G. Buzsáki, New York University, New York, N.Y., USA). […] Power was calculated by taking the absolute value of the wavelet transform and averaged across time to obtain the power spectrum. […]"}, "autotaxin": {"biological_target": "autotaxin (Homo sapiens, UniProt Q13822)", "conditions": "Gierse et al., 2010; cited from earlier work"}}}
{"compound": "O=C(CCN1CCN(C(=O)OCc2cc(Cl)cc(Cl)c2)CC1)c1ccc2[nH]c(=O)oc2c1", "note": "[PF8380, 4-[3-(2,3-Dihydro-2-oxo-6-benzoxazolyl)-3-oxopropyl]-1-piperazinecarboxylic acid (3,5-dichlorophenyl)methyl ester]", "values": [{"measurement": "PPI-deficit", "setting": "PRG-1+/− mice", "result": "significantly rescued"}, {"measurement": "Pre Pulse Inhibition (PPI)", "setting": "PRG-1R346T+/− animals", "result": "rescue the decreased PPI to WT values"}, {"measurement": "PPI", "setting": "[1]", "result": "rescued to WT values"}, {"measurement": "hyperactivity following ketamine application in an open field setting", "setting": "[1]", "result": "significantly reduced"}, {"measurement": "PPR", "setting": "[2]", "result": "increased"}, {"measurement": "evoked potentials (eEPSC, first stimulus)", "setting": "[2]", "result": "significantly affected"}, {"measurement": "second stimulus applied at an interval of 50 ms", "setting": "[2]", "result": "did not alter"}, {"measurement": "gamma coherence between MEC and CA1", "setting": "PRG1−/− mice; PF8380 treated PRG1−/− mice", "result": "reduced to WT levels"}, {"measurement": "peak frequency of theta coherence between MEC and CA1", "setting": "PRG1−/− mice; PF8380 treated PRG1−/− mice compared with WT mice", "result": "lower"}, {"measurement": "average movement speed during exploratory behavior in the open field", "setting": "PRG1−/− mice; wild type, untreated and PF8380-treated PRG-1−/− mice", "result": "no difference"}, {"measurement": "potency as inhibitor of the LPA-synthetizing enzyme autotaxin", "setting": "autotaxin", "result": "nanomolar potency"}]}
